These results are taken from article PMC11487561 (ACS Chemical Neuroscience, 2024).

The nature of this data set: In vivo rat iv/po PK. The settings on record: male, Sprague-Dawley, plasma, rat (SD); for bioavailability: rat, po. The protocol:
Intravenous pharmacokinetics and plasma-brain level determination (IV PK PBL) VU6016235 […]
Dawley rats (n = 1; 342 gram body weights) via injection into a surgically-implanted jugular vein catheter. […] Blood samples were collected serially from a surgically implanted carotid artery catheter in each animal over multiple post-administration time points (0.033, 0.117, 0.25, 0.5, 1, 2, 4, 7, and 24 hours) into chilled, K2EDTA anticoagulant-fortified tubes and immediately placed on wet ice. […]
For PO PK studies, VU6016235 was formulated in 10% Tween 80 in water and administered orally as a single dose of 10 mg/kg to male Sprague Dawley rats (10 ml/kg, n=2) that were fasted overnight. […]
anticoagulant-fortified tubes and immediately placed on wet ice. The blood samples were then centrifuged (1700 rcf, 5 minutes, 4 °C) in order to obtain plasma samples, which were stored at -80 °C until analysis […]
Samples preparation for bioanalysis
Plasma samples from the in-life phase of the study were thawed at ambient temperature (benchtop), and then aliquots (20 µL per sample) were transferred to a 96-shallow-well (V-bottom) plate. Matrix-matched quality control (QC) samples and a standard curve of […] (1 mg/mL DMSO stock solution) were prepared in blank rat plasma (K2EDTA-treated) or blank brain homogenate via serial dilution and transferred (20 µL each) to the plate along with multiple blank plasma and brain homogenate samples. Acetonitrile (120 µL) containing IS (10 nM carbamazepine) was added to each well of the plate to precipitate protein. The plate was then centrifuged (4000 rcf, 5 minutes, ambient temperature), and resulting supernatants (60 µL each) were transferred to a new 96-shallow-well (V-bottom) plate containing an equal volume (60 µL per well) of water (Milli-Q purified). […]
The plasma standard curve and QCs were used for compounds quantitation in brain.
Binding in plasma from rat and human.
Determination of compounds’ fraction unbound (f u) in plasma from rat and human was conducted in vitro via equilibrium dialysis using HTDialysis membrane plates. Dialysis membranes (four paired strips per HTD assay) were hydrated as described by the manufacturer and inserted into the HTD plate, which was assembled and prepared for sample addition by the dispensing of blank buffer (DPBS, 100 µL/well) into the ‘top half’ of each membrane-split well. Each compound was diluted into plasma from each species (5 µM final concentration), which was aliquoted in triplicate to the ‘bottom half’ of the prepared HTD plate wells. The HTD plate was sealed and incubated for 6 hours at 37 °C. Following incubation, each well (both top and bottom halves) were transferred (20 µL) to the corresponding wells of a 96-shallow-well (V-bottom) plate. The daughter plates were then matrix-matched (buffer side wells received equal volume of plasma, and plasma side wells received equal volume of buffer), and extraction solution (120 µL; acetonitrile containing 50 nM carbamazepine as IS) was added to all wells of both daughter plates to precipitate protein and extract test article. The plates were then sealed and centrifuged (3500 rcf) for 10 minutes at ambient temperature. Supernatant (60 µL) from each well of the daughter plates was then transferred to the corresponding wells of new daughter plates (96-shallow-well, V bottom) containing water (Milli-Q, 60 µL/well), and the plates were sealed in preparation for LC-MS/MS analysis (see below). fu was calculated as (analyte to IS MS peak area ratio from Trans-buffer side) / (analyte to IS MS peak area ratio from Cis-plasma side). Mean values for each species were calculated from 3 replicates.

As a reminder, the MRT is a mean duration of stay, worked out from the concentration-time curve. Broadly, the half-life is how long it takes for the measured level to halve. High values mean slow loss, low ones fast loss. By AUC(0-inf) is commonly meant the area under the concentration-time curve extrapolated to infinity. Read a high AUC(0-inf) as more exposure. In general, Cmax refers to the highest concentration seen after dosing. The Tmax is the time at which the peak concentration occurs. By bioavailability is commonly meant the share of a dose that reaches the circulation, judged against a reference dose that is usually intravenous. Low readings indicate poor availability, high ones good availability. With `Cc1nc(C)c2c(n1)sc1c(NCc3ccc(C(C)(C)O)cc3)nccc12` [22g], for the setting “iv 1.0 mg/kg”, the MRT turned out to be 4.3 h and the half-life is 3.4 h. The clearance (iv 1.0 mg/kg, read-out: CLp) is 4.9 mL/min/kg. The Vd (iv 1.0 mg/kg, read-out: Vss) amounted to 1.3 L/kg. Also, where the note is “po 3.0 mg/kg”, the total exposure AUC(0-inf) amounted to 8410 ng·h/mL, the highest level (Cmax) was 657 ng/mL and the Tmax came to 3 h. In addition, for the setting “po 30.0 mg/kg”, the AUC(0-inf) is 59200 ng·h/mL, the peak level (Cmax) was 4460 ng/mL and the Tmax came out at 5 h. For the same compound, the bioavailability (3 mg/kg, po 3.0 mg/kg) was no less than 100%. The bioavailability (30 mg/kg, po 30.0 mg/kg) was 84%.
